Data from patent US6572788B2, “Amine oxide wood preservatives” (Lonza, Inc., priority 2000, dated 2003).
In brackets after ≈: the same amount, converted by molar mass. Several values for one entry are separate records, joined by “and”; a condition that tells them apart may be missing. Equal values may be shown once. Read-outs that look alike come from different tables or passages of the source. One block for each molecule: values may come before it.

What was measured:
[1] = tested on: Chaetomium globsum (C. globsum), a soft rot fungus; assay: Agar plate method, fungus growth inhibition; format: cell-based
Protocol: (§1) The efficacy of aqueous solutions of amine oxides and didecyldimethyl ammonium chloride to inhibit fungus growth was evaluated by the agar plate method known in the art. […] The fungi tested were Trametes versicolor (T. versicolor), a white rot fungus; Gloeophyllum trabeum (G. trabeum), a brown rot fungus which is tolerant of arsenic and phenolic type wood preservatives; Poria placenta (P. placenta), a brown rot fungus which is tolerant to copper in wood preservatives; Lentinus lepideus (L. lepideus), a brown rot fungus which is tolerant to creosote; Coniophora puteana (C. puteana), a brown rot fungus; and Chaetomium globsum (C. globsum), a soft rot fungus.

[2] = tested on: Gloeophyllum trabeum (G. trabeum), a brown rot fungus; assay: Agar plate method, fungus growth inhibition; format: cell-based
Protocol: as §1

[3] = tested on: Poria placenta (P. placenta), a brown rot fungus; assay: Agar plate method, fungus growth inhibition; format: cell-based
Protocol: as §1

[4] = tested on: Trametes versicolor (T. versicolor), a white rot fungus; assay: Agar plate method, fungus growth inhibition; format: cell-based; details: 50% retardation of growth
Protocol: as §1

[5] = tested on: C. globosum (soft rot decay fungi); assay: Agar dilution plate method, wood rot fungi; format: cell-based; details: for MIC: Chaetomium globosum, read-out: MIC (ppm of amine oxides)
Protocol: (§2) The efficacy of the aqueous amine oxide solutions in Table 14 at various concentrations against the wood rot fungi T. versicolor (white rot fungi), G. trabeum (brown rot fungi), P. placenta (brown rot fungi), and C. globosum (soft rot decay fungi) were determined using the agar dilution plate method well known in the art. […] The percent retardation of the fungi was determined by the percentage change in the diameter of the fungi on the agar plate (i.e. Percent Retardation=((Diameter of Control)−(Diameter of Treated Fungi))/(Diameter of Control)*100%).

[6] = tested on: G. trabeum (brown rot fungi); assay: Agar dilution plate method, wood rot fungi; format: cell-based; details: for MIC: Gloeophyllum trabeum, read-out: MIC (ppm of amine oxides)
Protocol: as §2

[7] = tested on: P. placenta (brown rot fungi); assay: Agar dilution plate method, wood rot fungi; format: cell-based; details: for MIC: read-out: MIC (ppm of amine oxides)
Protocol: as §2

[8] = tested on: T. versicolor (white rot fungi); assay: Agar dilution plate method, wood rot fungi; format: cell-based; details: for MIC: Trametes versicolor, read-out: MIC (ppm of amine oxides)
Protocol: as §2

stains, molds, and fungi [9] = assay: Wood preserving efficacy on freshly cut white birch wood (dip treatment, sealed bag); design: key: 4 - Clean with no visible stain or mold; 3 - Trace amount of white/black fungal growth; 2 - Black and/or white fungal growth visible on all faces and ends; 1 - Heavy fungal growth
Protocol: The wood preserving efficacy of each aqueous test solution in Table 1 below was tested on freshly cut white birch wood as follows. All percentages in Table 1 are by weight. A branch of white birch tree measuring about 3 inches in diameter was cut into pieces about 6 inch in length. Each piece was then split into 4 sections. Each section was dipped into the test solution for about 1 minute and blotted with a paper towel to remove excess liquid. The sections were sealed in a clear plastic bag and stored at ambient conditions. The sections were observed after 1, 3, 7, and 12 weeks for the growth of stains, molds, and fungi. The aqueous test solutions were prepared by mixing the active ingredient with water.

stains, molds, and fungi [10] = assay: Wood preserving efficacy on freshly cut green chestnut oak (dip treatment); design: scale not given here
stains, molds, and fungi [11] = assay: Wood preserving efficacy on freshly cut tulip wood (dip treatment); further: key: 4 - Clean with no visible stain or mold; 3 - Trace amount of white/black fungal growth; 2 - Black and/or white fungal growth visible on all faces and ends; 1 - Heavy fungal growth
Protocol: The wood preserving efficacy of each aqueous test solution in Table 17 below was tested on freshly cut tulip wood (also known as Tulip-Popular, Yellow Popular, and Liriodendron tulipfera L.) as follows. All percentages in Table 17 are by weight. Pieces of tulip wood cut from a 4″ debarked branch were cut into pieces. Each piece was then split into 4 sections. Each section was dipped into the test solution for about 1 minute and blotted with a paper towel to remove excess liquid. The sections were sealed in a clear plastic bag and stored at ambient conditions. The sections were observed after 1, 3, 7, and 11 weeks for the growth of stains, molds, and fungi. The aqueous test solutions were prepared by mixing the active ingredient with water.

stains, molds, and fungi [12] = assay: Wood preserving efficacy on freshly cut beech wood (dip treatment); details: beech wood pieces (Example 15); further: key: 4 - Clean with no visible stain or mold; 3 - Trace amount of white/black fungal growth; 2 - Black and/or white fungal growth visible on all faces and ends; 1 - Heavy fungal growth
Protocol: The wood preserving efficacy of each aqueous test solution in Table 18 below was tested on freshly cut beech wood (Fagus grandifolia Ehrh.) as follows. All percentages in Table 18 are by weight. A 1″ branch of a beech tree was split into two pieces. The bark was left on the pieces. Each piece was dipped into the test solution for about 1 minute and blotted with a paper towel to remove excess liquid. […] The aqueous test solutions were prepared by mixing the active ingredient with water.

[13] = C. globosum, 100% growth retardation, Table 14
[14] = G. trabeum, 100% growth retardation, Table 14
[15] = P. placenta, 100% growth retardation, Table 14
[16] = T. versicolor, 100% growth retardation, Table 14
[17] = 3 weeks, listed as 0.5% Dodecyl DMAO
[18] = 3 weeks, listed as 1.0% Dodecyl DMAO
[19] = 7 weeks, listed as 0.5% Dodecyl DMAO
[20] = 7 weeks, listed as 1.0% Dodecyl DMAO
[21] = 11 weeks, listed as 0.5% Dodecyl DMAO
[22] = 11 weeks, listed as 1.0% Dodecyl DMAO

Molecule: Coco-di(hydroxyethyl)amine oxide
MIC (ppm of amine oxides) [5, 13]: >1000 ppm | MIC (ppm of amine oxides) [6, 14]: 500 ppm | MIC (ppm of amine oxides) [7, 15]: 500 ppm | MIC (ppm of amine oxides) [8, 16]: 500 ppm

Molecule: CCCCCCCCCCCC[N+](C)([O-])Cc1ccccc1 (centres unmarked) [Dodecyl-BMAO]
MIC (ppm of amine oxides) [5, 13]: >1000 ppm | MIC (ppm of amine oxides) [6, 14]: 1000 ppm | MIC (ppm of amine oxides) [7, 15]: >1000 ppm | MIC (ppm of amine oxides) [8, 16]: >1000 ppm

Molecule: CC(O)(P(=O)(O)O)P(=O)(O)O [1-Hydroxyethylidene-1,1-diphosphonic acid]
Rating of treated green chestnut oak sections vs. Time (stains, molds, and fungi [10]; 2 weeks): 2 | Rating of treated green chestnut oak sections vs. Time (stains, molds, and fungi [10]; 4 weeks): 2 | Rating of treated green chestnut oak sections vs. Time (stains, molds, and fungi [10]; 5 weeks): 1 | Rating of treated green chestnut oak sections vs. Time (stains, molds, and fungi [10]; 9 weeks): 1

Molecule: CCCCCCCCCCCC[N+]1([O-])CCOCC1 [Lauryl morpholine N-oxide, lauryl morpholine N-oxide]
MIC (ppm of amine oxides) [5, 13]: >1000 ppm | MIC (ppm of amine oxides) [6, 14]: 1000 ppm | MIC (ppm of amine oxides) [7, 15]: 500 ppm | MIC (ppm of amine oxides) [8, 16]: 750 ppm

Molecule: Tallow di(hydroxyethyl)amine oxide
MIC (ppm of amine oxides) [5, 13]: >1000 ppm | MIC (ppm of amine oxides) [6, 14]: >1000 ppm | MIC (ppm of amine oxides) [7, 15]: >1000 ppm | MIC (ppm of amine oxides) [8, 16]: >1000 ppm

Molecule: CCCCCCCCCCCC[N+](C)(C)[O-] [Dodecyl dimethylamine oxide, dodecyl dimethylamine oxide]
Rating of treated green chestnut oak sections vs. Time (stains, molds, and fungi [10]; 2 weeks): 3 | Rating of treated green chestnut oak sections vs. Time (stains, molds, and fungi [10]; 4 weeks): 2 | Rating of treated green chestnut oak sections vs. Time (stains, molds, and fungi [10]; 5 weeks): 2 | Rating of treated green chestnut oak sections vs. Time (stains, molds, and fungi [10]; 9 weeks): 1 | MIC [5]: > 1000 µg/mL | MIC [6]: 250 µg/mL (≈ 1.09 mM) | MIC [7]: 250 µg/mL (≈ 1.09 mM) | MIC [8]: 250 µg/mL (≈ 1.09 mM) | Rating of treated tulip sections vs. Time (stains, molds, and fungi [11]; 1 week): 4 | Rating of treated tulip sections vs. Time (stains, molds, and fungi [11]; [17]): 3 | Rating of treated tulip sections vs. Time (stains, molds, and fungi [11]; [18]): 4 | Rating of treated tulip sections vs. Time (stains, molds, and fungi [11]; [19]): 2 | Rating of treated tulip sections vs. Time (stains, molds, and fungi [11]; [20]): 4 and 3 | Rating of treated tulip sections vs. Time (stains, molds, and fungi [11]; [21]): 1 | Rating of treated tulip sections vs. Time (stains, molds, and fungi [11]; [22]): 4 | Rating of treated tulip sections vs. Time (stains, molds, and fungi [12]; 1 week, listed as 0.5% Dodecyl DMAO): 4 | Rating of treated tulip sections vs. Time (stains, molds, and fungi [12]; 1 week, listed as 1.0% Dodecyl DMAO): 4 and 3.5 | Rating of treated tulip sections vs. Time (stains, molds, and fungi [12]; [17]): 4 | Rating of treated tulip sections vs. Time (stains, molds, and fungi [12]; [18]): 2 and 3 | Rating of treated tulip sections vs. Time (stains, molds, and fungi [12]; [19]): 2.5 | Rating of treated tulip sections vs. Time (stains, molds, and fungi [12]; [20]): 2 | Rating of treated tulip sections vs. Time (stains, molds, and fungi [12]; [21]): 2.5 | Rating of treated tulip sections vs. Time (stains, molds, and fungi [12]; [22]): 2 and 1

More lines, main results first:

IC50 [1]: 600 ppm | IC50 [2]: 250 ppm | IC50 [3]: 20-50 ppm | IC50 [4]: 800 ppm | MIC [5, 13]: > 1000 µg/mL | MIC [6, 14]: > 1000 µg/mL | MIC [7, 15]: > 1000 µg/mL | MIC [8, 16]: > 1000 µg/mL
Molecule: CCCCCCCCCCCCCCCCCC[N+](C)(C)[O-] [Octadecyl dimethylamine oxide]

IC50 [1]: 50-100 ppm | IC50 [2]: 20-40 ppm | IC50 [3]: 15-25 ppm | IC50 [4]: 300-500 ppm | MIC [5, 13]: > 1000 µg/mL | MIC [6, 14]: 250 µg/mL (≈ 1.24 mM) | MIC [7, 15]: 500 µg/mL (≈ 2.48 mM) | MIC [8, 16]: 750 µg/mL (≈ 3.72 mM)
Molecule: CCCCCCCCCC[N+](C)(C)[O-] [Decyldimethylamine oxide]
Rating of treated white birch sections vs. Time (stains, molds, and fungi [9]; 1 week): 3 | Rating of treated white birch sections vs. Time (stains, molds, and fungi [9]; 3 weeks): 2 | Rating of treated white birch sections vs. Time (stains, molds, and fungi [9]; 7 weeks): 2 | Rating of treated white birch sections vs. Time (stains, molds, and fungi [9]; 12 weeks): 2

IC50 [1]: 400 ppm | IC50 [2]: 250-400 ppm | IC50 [3]: 300 ppm | IC50 [4]: 800 ppm | MIC [5, 13]: > 1000 µg/mL | MIC [6, 14]: 1000 µg/mL (≈ 5.77 mM) | MIC [7, 15]: 1000 µg/mL (≈ 5.77 mM) | MIC [8, 16]: 750 µg/mL (≈ 4.33 mM)
Molecule: CCCCCCCC[N+](C)(C)[O-] [Octyldimethylamine oxide]

IC50 [1]: 80-100 ppm | IC50 [2]: 15-25 ppm | IC50 [3]: 2-5 ppm | IC50 [4]: 70 ppm | MIC [5, 13]: > 1000 µg/mL | MIC [6, 14]: > 1000 µg/mL | MIC [7, 15]: > 1000 µg/mL | MIC [8, 16]: > 1000 µg/mL
Molecule: CCCCCCCCCCCCCC[N+](C)(C)[O-] [Tetradecyl dimethylamine oxide]
Rating of treated white birch sections vs. Time (stains, molds, and fungi [9]; 1 week): 4 | Rating of treated white birch sections vs. Time (stains, molds, and fungi [9]; 3 weeks): 3 | Rating of treated white birch sections vs. Time (stains, molds, and fungi [9]; 7 weeks): 2 | Rating of treated white birch sections vs. Time (stains, molds, and fungi [9]; 12 weeks): 2
